Columns and labels:
[1] = biological target: T1, purified human TYMS (Homo sapiens, UniProt P04818); experiment: Tritium-based TYMS catalytic activity assay; type: biochemical
T1 construct: 6xHis (N); made in house; host or cells: E. coli BL21 (DE3), vector pQE80L-hTYMS
Procedure: To determine the inhibition of TYMS activity, we utilized a tritium-based TYMS catalytic assay (Figure 1A) to quantify the conversion of dUMP, which is proportional to TYMS activity ([33]). The assay was based on a previously published protocol ([33]) and modified to determine the amount of purified human TYMS (hTYMS) to be used in the conversion of dUMP to dTMP. […]
Tritium based TYMS catalytic activity assay
The catalytic activity of TYMS was determined by measuring the release of [3H] from [5-3H]dUMP (ViTrax, Cat # VT122) resulting from the conversion of dUMP to dTMP as previously described (2, 3).
The reaction conditions were optimized to determine the amount of TYMS protein needed to establish […]
reactions performed without TYMS or without the 5,10-methylene tetrahydrofolate (5,10-mTHF) cofactor (Supplemental Figure 2 and Supplemental methods). Reactions were performed in 50 mM KH2PO4 (Sigma Aldrich, Cat # P0662) at pH 7.2 using 2 µg of purified human TYMS. Reactions were performed in a final volume of 200 µL with 100 mM β-mercaptoethanol (Sigma Aldrich, Cat # M7522), 40 µM dUMP (Sigma Aldrich, Cat # D3876), 100 µM 5,10-mTHF, and the [5-3H]dUMP tracer (ViTrax, Cat # VT122) accounting for 0.06% of the final dUMP concentration in the reaction. The 5,10-mTHF used in the reaction was separately generated from tetrahydrofolic acid (Sigma Aldrich, Cat # T3125) by dissolving the solid in 10 mM KH2PO4 with 143 mM β-mercaptoethanol (1:100 from 14.3 M pure liquid), and 6.35 mM formaldehyde (Sigma Aldrich, Cat # 47608) to yield a 100 mM stock solution of 5,10- mTHF. Reactions were initiated by the addition of the dUMP substrate and 5,10-mTHF cofactor, then incubated at 37 °C for 30 minutes. […]
before the reaction was initiated by the addition of the dUMP substrate and 5,10-mTHF cofactor.
Reactions were terminated by the addition of 100 µL of ice-cold 20% trichloroacetic acid (Sigma Aldrich, Cat # T6399), then excess [5-3H]dUMP was removed by the addition of 200 µL of an albumin-coated activated charcoal solution. The albumin-coated activated charcoal solution was prepared by mixing 10 g of acid- washed activated dextran coated charcoal (Sigma Aldrich, Cat # C6241) with 2.5 g of bovine albumin (Sigma Aldrich, Cat # A1933) in 100 mL of H2O. The suspension was incubated at room temperature for 30 minutes and then centrifuged for 30 minutes at 10,000 x g. Then 150 µL of the supernatant was collected and added to 5 mL of ultima gold liquid scintillation cocktail (Perkin Elmer, Cat # 6013326, lot: 77-19085), and scintillation measurements were perform using a liquid scintillation counter (Beckman Coulter LS6500) to determine [3H]H2O levels in each sample. For all experiments, positive control reactions were performed with no drug representing 100% TYMS activity, and negative

[2] = biological target: T2, DHFR (Homo sapiens, UniProt P00374); experiment: Absorbance-based DHFR activity assay; type: biochemical; conditions: Figure 6D
T2 construct: purchased Sigma D6566 (kit CS0340)
T2 sequence (P00374 1-187): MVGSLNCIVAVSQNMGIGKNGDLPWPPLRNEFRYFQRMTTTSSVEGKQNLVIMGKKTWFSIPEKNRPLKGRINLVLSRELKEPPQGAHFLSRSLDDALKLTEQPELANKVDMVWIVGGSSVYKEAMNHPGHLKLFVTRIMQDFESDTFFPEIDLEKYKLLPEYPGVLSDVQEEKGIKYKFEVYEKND
Procedure: DHFR assay kit (Sigma Aldrich, Cat # CS0340) as described by the manufacturer. 0.1-unit DHFR
analogues or control drugs, 6 μL NADPH Cat # N6505 solution and 5 μl of dihydrofolic acid (DHFR
substrate) (Sigma, Cat # D7006). The reaction was then read on the spectrophotometer at 340 nm at
22 °C every 15 seconds for 2.5 minutes.

[3] = tested on: MIA PaCa-2 cells; experiment: MTS viability assay, MIA PaCa-2; type: cell-based; conditions: Homo sapiens, 72-hour drug treatment, Figure 6E, highest concentration 350 μM
Procedure: Cells were harvested after 72 hours, and cell pellets were stored at –80°C. […] After 72 hours, cell viability was assessed by reduction of MTS using Cell Titer 96 R Aqueous One Solution Cell Proliferation Assay Kit (Promega, catalog G8081), following manufacturer’s recommendations. […] was measured on a SpectraMax M3 (Molecular Devices). Data were plotted in GraphPad Prism 9 to determine GI50 concentration. Chemical synthesis details, including characterization of each compound, can be found in the Supplemental section associated with this publication.

[4] = tested on: Luc-PANC-1 xenograft tumors; experiment: Luc-PANC-1 subcutaneous xenograft tumor model; type: in vivo; conditions: 25 mg/kg PO, 4 cycles, Figure 9
Text: In the subcutaneous tumor model, the resulting Luc-PANC-1 xenograft tumors were monitored by direct tumor measurements and bioluminescence photon flux that is proportional to tumor size. […] Treatment was initiated 30 days after Luc-PANC-1 cell line subcutaneous injections (5 × 10^6 cells), when tumors reached 100 mm^3 in volume, generating a bioluminescence photon flux of 3 × 10^9 to 4 × 10^9 photons/s. […] Tumors from both treatment groups were excised, and the tumor mass was weighed (Figure 2E).
Luc-PANC-1 (5 × 10^6) and Luc-CM (0.5 × 10^6) cells were resuspended in 200 μL of PBS and injected subcutaneously or IP, respectively, into 6- to 8-week-old NSG mice. Tumor-bearing mice were imaged using Xenogen IVIS Lumina Bioluminescence Imaging System (PerkinElmer) every week after cell injection. […] For all animals, body weight was recorded weekly, and Luc-PANC-1 tumor volume was measured weekly with a caliper. For scheduled sacrifice experiments, animals were euthanized after 4 weeks of treatment. […] Tumor volume was calculated as volume = 0.52(length × width^2).
Prior to bioluminescence imaging the region where tumors were located was shaved. […] Following the injection of the D-luciferin substrate mice, were imaged using the Xenogen IVIS Lumina Bioluminescence Imaging System (PerkinElmer). The peak of luciferase photon flux was recorded 6 minutes after injection of the D-luciferin substrate. The total photon flux was analyzed and restricted to tumor region of interest using Living Image v2.60.1 software (Imaging Systems).

[5] = in vivo; conditions: NSG, mouse, po
Procedure: Maximum tolerated dose (MTD)
experiment) or 5, 10, 25 or 50 mg/kg of 5-FU daily during 5 consecutive days. After 3 treatment cycles,
animals rested (no treatment) for one more week before euthanasia. Body weight and physical status
of all mice were closely monitored. Tissues were collected and fixed in alcoholic formalin to test for
daily during 5 consecutive days for 3 weeks. After 3 treatment cycles, animals rested (no treatment) for
one more week before euthanasia. Body weight and physical status of all mice were closely monitored.
Tissues were collected and fixed in alcoholic formalin to test for toxicity.
Specimens were fixed in alcoholic formalin for 48h and then transferred to 70% ethanol, processed and
embedded in paraffin. Tissues were serially sectioned and stained by conventional H&E. Slides were

T1 sequence (P04818 whole entry): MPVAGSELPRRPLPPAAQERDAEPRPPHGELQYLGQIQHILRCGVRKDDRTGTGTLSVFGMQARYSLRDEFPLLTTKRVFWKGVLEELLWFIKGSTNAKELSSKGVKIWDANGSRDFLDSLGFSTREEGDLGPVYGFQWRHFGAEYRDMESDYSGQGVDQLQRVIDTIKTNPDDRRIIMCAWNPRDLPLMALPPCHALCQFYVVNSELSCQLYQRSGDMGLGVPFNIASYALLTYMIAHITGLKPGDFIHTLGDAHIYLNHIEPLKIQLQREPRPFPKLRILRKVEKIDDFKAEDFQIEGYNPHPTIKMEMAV

**Q.** For `CCc1nc(N)nc(N)c1-c1ccc(N(C)Cc2ccc3c(c2)OCO3)c([N+](=O)[O-])c1` [Compound 19-S7], which “TS activity, screen of 19-S series analogs” value ([1]; 250 μM, Figure 6A) is on record?
**A.** inhibited TYMS activity

**Q.** And the “TS activity, comparison at decreasing drug concentrations” value ([1]; Figure 6C)?
**A.** greater TYMS inhibition than both MTX and PEM

**Q.** What about the “DHFR activity, comparison at reduced drug concentrations” value [2] of the same compound?
**A.** potent TYMS and DHFR inhibition

**Q.** What about the GI50 [3] of the same compound?
**A.** 200 nM

**Q.** What about the Bioluminescence photon flux [4] of the same compound?
**A.** reduced bioluminescence photon flux

**Q.** And the Body weight [4]?
**A.** did not show adverse effects on or declines in body weight

**Q.** And the “Final excised tumor mass” value [4]?
**A.** reduced mass of the final excised tumors

**Q.** And the Tumor volume [4]?
**A.** reduced and stable tumor volumes

**Q.** And the MTD at 3 weeks [5]?
**A.** 25 mg/kg

— publication PMC10386886, “First-in-class multifunctional TYMS nonclassical antifolate inhibitor with potent in vivo activity that prolongs survival” (JCI Insight, 2023)
